Test results as given in EP4692321A1, “CELL STRUCTURE PRODUCTION METHOD” (Toppan Holdings Inc., priority 2023, dated 2024).

Experiments:
vascularized liver model [1] = experiment: Vascular toxicity: CD31 immunostaining and blood vessel length after monocrotaline (Test Example 5); format: cell-based, human; conditions: vascularized liver model compared to other models; 0 to 600 µM added on Day 7, 7 further days; relative to no monocrotaline = 100%
Procedure: (§1) Except for using a 24-transwell as the culture vessel, culturing a cell mixture of 1.95 × 10^4 human hepatocytes (PXB Cells (registered trademark); manufactured by PhoenixBio Co., Ltd.) and 3.0 × 10^3 immortalized sinusoidal endothelial cells (SEC; manufactured by Sciencell, Product No. 5000) using the HCM medium including 50 ng/mL VEGF-A and 50 ng/mL VEGF-C as vascular development factors and 1 v/v% vascular maintenance factor cocktail,culturing a cell mixture of human hepatocytes (PXB Cells (registered trademark); manufactured by PhoenixBio Co., Ltd.), 7.5 × 10^3 immortalized sinusoidal endothelial cells (SEC, manufactured by Sciencell, Product No. "5000"), and 3.0 × 10^3 hepatic stellate cells (LX2; manufactured by Sigma-Aldrich) using the HCM medium including 1 v/v% vascular maintenance factor cocktail, orculturing a cell mixture of 2.1 × 10^3 immortalized sinusoidal endothelial cells (SEC; manufactured by Sciencell, Product No. "5000") and 9.0 × 10^3 hepatic stellate cells (LX2; manufactured by Sigma-Aldrich) using the HCM medium including 1 v/v% vascular maintenance factor cocktail, cell mixtures were cultured and cell structures were obtained in the same manner as in Test Example 4. […]
In addition, vascular structures were extracted from the microscopic images shown in FIGS. 8 and 9, and the blood vessel lengths of the cell structures were measured. […]

vascularized liver model [2] = experiment: Cell viability by ATP assay (CellTiter-Glo 3D) after monocrotaline (Test Example 5); format: cell-based, human; conditions: vascularized liver model compared to other models, 0 to 600 µM added on Day 7, 7 further days
Procedure: as §1
In addition, the cell viability of the similarly produced cell structure was also quantified by an ATP assay. […]

C[C@H]1C(=O)O[C@@H]2CCN3CC=C(COC(=O)[C@](C)(O)[C@]1(C)O)[C@H]23 [monocrotaline]
blood vessel length (vascularized liver model [1]): notably shorter blood vessel length
cell viability (vascularized liver model [2]): concentration-dependent decrease in cell viability
